Experimental data as given in article PMC6591272, “Midostaurin Reverses ABCB1-Mediated Multidrug Resistance, an in vitro Study” (Frontiers in Oncology, 2019).

What was measured:
[1] = target: T1, ABCB1 transporter (P-gp/MDR1) (Homo sapiens, UniProt P08183)
[2] = target: T1, ABCB1 transporter (P-gp/MDR1); test: vanadate-sensitive ATPase assay in ABCB1-overexpressing membranes; supported by [3H]-paclitaxel efflux inhibition in KB-C2 cells; format: biochemical; parameters: cell membranes that overexpressed ABCB1

T1 sequence (P08183 whole entry): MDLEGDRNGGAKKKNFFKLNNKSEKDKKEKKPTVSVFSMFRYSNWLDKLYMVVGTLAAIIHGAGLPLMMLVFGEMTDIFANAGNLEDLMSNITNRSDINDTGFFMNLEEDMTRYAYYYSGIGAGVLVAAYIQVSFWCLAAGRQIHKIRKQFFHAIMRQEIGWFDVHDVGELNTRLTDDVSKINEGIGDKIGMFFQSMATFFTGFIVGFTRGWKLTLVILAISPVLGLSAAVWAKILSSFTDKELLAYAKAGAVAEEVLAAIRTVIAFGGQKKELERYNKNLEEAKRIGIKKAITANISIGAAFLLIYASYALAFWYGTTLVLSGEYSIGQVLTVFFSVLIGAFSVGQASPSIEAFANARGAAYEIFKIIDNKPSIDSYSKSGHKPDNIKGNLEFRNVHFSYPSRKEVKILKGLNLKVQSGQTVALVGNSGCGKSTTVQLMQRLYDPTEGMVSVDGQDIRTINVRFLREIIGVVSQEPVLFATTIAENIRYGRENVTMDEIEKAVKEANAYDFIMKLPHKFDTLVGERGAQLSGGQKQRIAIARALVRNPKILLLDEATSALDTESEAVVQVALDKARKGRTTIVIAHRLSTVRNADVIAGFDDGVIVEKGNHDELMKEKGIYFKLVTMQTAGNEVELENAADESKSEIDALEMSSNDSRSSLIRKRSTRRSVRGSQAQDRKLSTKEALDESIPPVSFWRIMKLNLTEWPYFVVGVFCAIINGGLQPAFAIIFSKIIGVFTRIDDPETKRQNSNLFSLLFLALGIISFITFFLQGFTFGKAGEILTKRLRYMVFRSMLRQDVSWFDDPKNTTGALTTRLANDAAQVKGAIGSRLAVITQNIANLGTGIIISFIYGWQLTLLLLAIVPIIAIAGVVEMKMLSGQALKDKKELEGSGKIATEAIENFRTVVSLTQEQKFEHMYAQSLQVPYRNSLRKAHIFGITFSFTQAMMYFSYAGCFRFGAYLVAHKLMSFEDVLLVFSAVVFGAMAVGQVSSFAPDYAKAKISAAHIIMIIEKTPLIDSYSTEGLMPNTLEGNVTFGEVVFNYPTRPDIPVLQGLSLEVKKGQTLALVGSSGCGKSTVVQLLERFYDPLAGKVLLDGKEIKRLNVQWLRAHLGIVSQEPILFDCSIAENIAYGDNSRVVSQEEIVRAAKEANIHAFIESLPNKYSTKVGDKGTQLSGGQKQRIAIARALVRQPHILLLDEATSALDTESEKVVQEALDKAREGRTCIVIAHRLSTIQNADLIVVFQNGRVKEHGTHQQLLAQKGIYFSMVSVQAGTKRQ

With `CC(=O)O[C@H]1C(=O)[C@@]2(C)[C@H]([C@H](OC(=O)c3ccccc3)[C@]3(O)C[C@H](OC(=O)[C@H](O)[C@@H](NC(=O)c4ccccc4)c4ccccc4)C(C)=C1C3(C)C)[C@]1(OC(C)=O)CO[C@@H]1C[C@@H]2O` [paclitaxel] the “[3H]-paclitaxel accumulation and efflux in KB-C2 versus parental KB-3-1 cells” value [1] was “midostaurin significantly decreased the efflux level of [^3H]-paclitaxel in ABCB1-overexpressing KB-C2 cells in a dose-dependent manner”.
In the case of `CO[C@@H]1[C@H](N(C)C(=O)c2ccccc2)C[C@H]2O[C@]1(C)n1c3ccccc3c3c4c(c5c6ccccc6n2c5c31)C(=O)NC4` [midostaurin], the IC50 [2] is reported as 3.1 µM.
